Laboratory results from patent US11053251B2, “GPR35 modulators” (Prometheus Biosciences, Inc., priority 2019, dated 2021).

Tests used:
[1] = biological target: Human GPR35 (Homo sapiens, UniProt Q9HC97, S294R); experiment: Alternative Beta-Arrestin Assay (JumpIn 294R Tango U2OS cells, LiveBLAzer-FRET B/G); type: cell-based; settings: for EC50: Human GPR35 expressing JumpIn 294R Tango U2OS cells, 5 hours treatment; for % inhibition at 50 μM: Table 2
How it was run: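 U2OS Tango cells expressing human GPR35 S294R, plated overnight, exposed to serially diluted compounds for 5 hours. β-lactamase reporter read with LiveBLAzer-FRET B/G (CCF4-AM) after 2 h; EC50 from four-parameter fit, zaprinast as positive control.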

[2] = biological target: Human GPR35 (Homo sapiens, UniProt Q9HC97); experiment: Beta-Arrestin Assay (Tango U2OS cells, LiveBLAzer-FRET B/G); type: cell-based; settings: Human GPR35 expressing Tango U2OS cells, 5 hours treatment
Chain of Human GPR35 (Homo sapiens, UniProt Q9HC97) (Q9HC97 whole entry): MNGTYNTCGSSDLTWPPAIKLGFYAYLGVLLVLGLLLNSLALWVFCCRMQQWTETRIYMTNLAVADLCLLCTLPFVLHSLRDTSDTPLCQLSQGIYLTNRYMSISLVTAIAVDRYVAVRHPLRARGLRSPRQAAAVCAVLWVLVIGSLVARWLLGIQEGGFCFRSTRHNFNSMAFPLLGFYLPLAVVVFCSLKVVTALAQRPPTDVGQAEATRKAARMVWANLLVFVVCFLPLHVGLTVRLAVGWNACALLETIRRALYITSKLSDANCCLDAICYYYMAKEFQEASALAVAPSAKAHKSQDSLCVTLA
Description: Human GPR35 expressing Tango U2OS cells were plated in 384-well format in clear bottom plates at a cell density of 10,000 cells/well and allowed to grow overnight. The next day, cells were treated with serially diluted test compounds for 5 hours. LiveBLAzer-FRET B/G (CCF4-AM) detection reagents were then added and cells were allowed to incubate for 2 hours before reading plates on a BioTek Cytation 5 plate reader. Zaprinast was used as a positive control for dose-response curves. In order to determine EC50 values, data were fit to a four-parameter dose-response curve.

Chain of Human GPR35 (Homo sapiens, UniProt Q9HC97, S294R) (Q9HC97 whole entry S294R): as the sequence (Q9HC97 whole entry) above, with S294R counted along it

Row | Structure (SMILES) | EC50 [1] [µM] | EC50 [2] [µM] | % inhibition at 50 μM [1] [% inhibition at]
1 | CCOc1cc(B(O)O)ccc1-c1nc2[nH]nnc2c(=O)[nH]1 [Compound 151, (3-ethoxy-4-(7-oxo-6,7-dihydro-3H-[1,2,3]triazolo[4,5-d]pyrimidin-5-yl)phenyl)boronic acid] | ≤ 10 | ≤ 10 | 
2 | O=C(O)c1ccc(-c2nc3[nH]nnc3c(=O)[nH]2)cc1 [Compound 144, 4-(7-oxo-6,7-dihydro-3H-[1,2,3]triazolo[4,5-d]pyrimidin-5-yl)benzoic acid] | ≤ 10 | ≤ 10 | 
3 | CCOc1cc(C(=O)N2CCCC2)ccc1-c1nc2[nH]nnc2c(=O)[nH]1 [Compound 133, 5-(2-Ethoxy-4-(pyrrolidine-1-carbonyl)phenyl)-3,6-dihydro-7H-[1,2,3]triazolo[4,5-d]pyrimidin-7-one] | 10 to 50 | ≤ 10 | 
4 | CCOc1cc(NCCCC(=O)O)ccc1-c1nc2[nH]nnc2c(=O)[nH]1 [Compound 164, 4-((3-ethoxy-4-(7-oxo-6,7-dihydro-3H-[1,2,3]triazolo[4,5-d]pyrimidin-5-yl)phenyl)amino)butanoic acid] | ≤ 10 | ≤ 10 | 
5 | CCOc1cc(C(=O)N2CC[C@@H](C(=O)O)C2)ccc1-c1nc2[nH]nnc2c(=O)[nH]1 [Compound 161, (R)-1-(3-ethoxy-4-(7-oxo-6,7-dihydro-3H-[1,2,3]triazolo[4,5-d]pyrimidin-5-yl)benzoyl)pyrrolidine-3-carboxylic acid] | ≤ 10 | ≤ 10 | 
6 | O=C(O)Cc1ccc(-c2nc3[nH]nnc3c(=O)[nH]2)cc1 [Compound 149, 2-(4-(7-oxo-6,7-dihydro-3H-[1,2,3]triazolo[4,5-d]pyrimidin-5-yl)phenyl)acetic acid] | ≤ 10 | ≤ 10 | 
7 | CCOc1cc(NCCC(=O)O)ccc1-c1nc2[nH]nnc2c(=O)[nH]1 [Compound 168, 3-((3-ethoxy-4-(7-oxo-6,7-dihydro-3H-[1,2,3]triazolo[4,5-d]pyrimidin-5-yl)phenyl)amino)propanoic acid] | ≤ 10 | ≤ 10 | 
8 | CCOc1cc(CC(=O)O)ccc1-c1nc2[nH]nnc2c(=O)[nH]1 [Compound 146, 2-(3-ethoxy-4-(7-oxo-6,7-dihydro-3H-[1,2,3]triazolo[4,5-d]pyrimidin-5-yl)phenyl)acetic acid] | ≤ 10 | ≤ 10 | 
9 | CCOc1cc(C(=O)N2CCC[C@@H]2C(=O)O)ccc1-c1nc2[nH]nnc2c(=O)[nH]1 [Compound 159, (3-ethoxy-4-(7-oxo-6,7-dihydro-3H-[1,2,3]triazolo[4,5-d]pyrimidin-5-yl)benzoyl)-D-proline] | 10 to 50 | > 10 | 
10 | CCOc1cc(NC(C)=O)ccc1-c1nc2[nH]nnc2c(=O)[nH]1 [Compound 138, N-(3-ethoxy-4-(7-oxo-6,7-dihydro-3H-[1,2,3]triazolo[4,5-d]pyrimidin-5-yl)phenyl)acetamide] | 10 to 50 | ≤ 10 | 
11 | CCOc1cc(NCC(=O)O)ccc1-c1nc2[nH]nnc2c(=O)[nH]1 [Compound 170, (3-ethoxy-4-(7-oxo-6,7-dihydro-3H-[1,2,3]triazolo[4,5-d]pyrimidin-5-yl)phenyl)glycine] | ≤ 10 | ≤ 10 | 
12 | CCOc1cc(N2CCCC(C(=O)O)C2)ccc1-c1nc2[nH]nnc2c(=O)[nH]1 (centres unmarked) [Compound 173, 1-(3-ethoxy-4-(7-oxo-6,7-dihydro-3H-[1,2,3]triazolo[4,5-d]pyrimidin-5-yl)phenyl)piperidine-3-carboxylic acid] | ≤ 10 | ≤ 10 | 
13 | O=c1[nH]c(-c2ccc(-c3ccccc3)cc2)nc2[nH]nnc12 [Compound 129, 5-([1,1′-biphenyl]-4-yl)-3,6-dihydro-7H-[1,2,3]triazolo[4,5-d]pyrimidin-7-one] | 10 to 50 | ≤ 10 | 
14 | CCOc1cc(C(=O)N2CCC[C@H]2C(=O)O)ccc1-c1nc2[nH]nnc2c(=O)[nH]1 [Compound 158, (3-ethoxy-4-(7-oxo-6,7-dihydro-3H-[1,2,3]triazolo[4,5-d]pyrimidin-5-yl)benzoyl)-L-proline] |  | > 10 | 48

The remaining lines, values ahead:

Row | EC50 [1] [µM] | EC50 [2] [µM] | % inhibition at 50 μM [1] [% inhibition at] | Structure (SMILES)
15 | ≤ 10 | ≤ 10 |  | CCOc1cc(-c2ccccc2)ccc1-c1nc2[nH]nnc2c(=O)[nH]1 [Compound 101, 5-(3-Ethoxy-[1,1′-biphenyl]-4-yl)-3,6-dihydro-7H-[1,2,3]triazolo[4,5-d]pyrimidin-7-one]
16 | ≤ 10 | ≤ 10 |  | CCOc1cc(-c2ccc(C(=O)O)nc2)ccc1-c1nc2[nH]nnc2c(=O)[nH]1 [Compound 125, 5-(3-Ethoxy-4-(7-oxo-6,7-dihydro-3H-[1,2,3]triazolo[4,5-d]pyrimidin-5-yl)phenyl)picolinic acid]
17 | ≤ 10 | ≤ 10 |  | CCOc1cc(-c2cccc(C(=O)OC)c2)ccc1-c1nc2[nH]nnc2c(=O)[nH]1 [Compound 107, Methyl 3′-ethoxy-4′-(7-oxo-6,7-dihydro-3H-[1,2,3]triazolo[4,5-d]pyrimidin-5-yl)-[1,1′-biphenyl]-3-carboxylate]
18 | ≤ 10 | ≤ 10 |  | CCOc1cc(-c2cccc(-c3nnn[nH]3)c2)ccc1-c1nc2[nH]nnc2c(=O)[nH]1 [Compound 153, 5-(3-ethoxy-3′-(1H-tetrazol-5-yl)-[1,1′-biphenyl]-4-yl)-3,6-dihydro-7H-[1,2,3]triazolo[4,5-d]pyrimidin-7-one]
19 | ≤ 10 | ≤ 10 |  | CCOc1cc(C(=O)O)ccc1-c1nc2[nH]nnc2c(=O)[nH]1 [Compound 132, 3-Ethoxy-4-(7-oxo-6,7-dihydro-3H-[1,2,3]triazolo[4,5-d]pyrimidin-5-yl)benzoic acid]
20 |  | > 10 | 35 | CCOc1cc(C(=O)N(C)c2ccccc2)ccc1-c1nc2[nH]nnc2c(=O)[nH]1 [Compound 139, 3-ethoxy-N-methyl-4-(7-oxo-6,7-dihydro-3H-[1,2,3]triazolo[4,5-d]pyrimidin-5-yl)-N-phenylbenzamide]
21 | ≤ 10 | ≤ 10 |  | CCOc1cc(-c2ccccn2)ccc1-c1nc2[nH]nnc2c(=O)[nH]1 [Compound 105, 5-(2-Ethoxy-4-(pyridin-2-yl)phenyl)-3,6-dihydro-7H-[1,2,3]triazolo[4,5-d]pyrimidin-7-one]
22 | ≤ 10 | ≤ 10 |  | CCOc1cc(-c2cc(C(=O)O)cc(C(=O)O)c2)ccc1-c1nc2[nH]nnc2c(=O)[nH]1 [Compound 157, 3′-ethoxy-4′-(7-oxo-6,7-dihydro-3H-[1,2,3]triazolo[4,5-d]pyrimidin-5-yl)-[1,1′-biphenyl]-3,5-dicarboxylic acid]
23 | ≤ 10 | ≤ 10 |  | CCOc1cc(-c2ccc(O)c(C(=O)O)c2)ccc1-c1nc2[nH]nnc2c(=O)[nH]1 [Compound 179, 3′-ethoxy-4-hydroxy-4′-(7-oxo-6,7-dihydro-3H-[1,2,3]triazolo[4,5-d]pyrimidin-5-yl)-[1,1′-biphenyl]-3-carboxylic acid]
24 | ≤ 10 | ≤ 10 |  | CCOc1cc(-c2noc(=O)[nH]2)ccc1-c1nc2[nH]nnc2c(=O)[nH]1 [Compound 150, 3-(3-ethoxy-4-(7-oxo-6,7-dihydro-3H-[1,2,3]triazolo[4,5-d]pyrimidin-5-yl)phenyl)-1,2,4-oxadiazol-5(4H)-one]
25 | ≤ 10 | ≤ 10 |  | CCOc1cc(Cc2cccc(C(=O)O)c2)ccc1-c1nc2[nH]nnc2c(=O)[nH]1 [Compound 176, 3-(3-ethoxy-4-(7-oxo-6,7-dihydro-3H-[1,2,3]triazolo[4,5-d]pyrimidin-5-yl)benzyl)benzoic acid]
26 | ≤ 10 | ≤ 10 |  | CCOc1cc(-c2cc(N)cc(C(=O)O)c2)ccc1-c1nc2[nH]nnc2c(=O)[nH]1 [Compound 123, 5-amino-3′-ethoxy-4′-(7-oxo-6,7-dihydro-3H-[1,2,3]triazolo[4,5-d]pyrimidin-5-yl)-[1,1′-biphenyl]-3-carboxylic acid]
27 | ≤ 10 | ≤ 10 |  | CCOc1cc(-c2cc(N)cc(C(=O)OC)c2)ccc1-c1nc2[nH]nnc2c(=O)[nH]1 [Compound 122, Methyl 5-amino-3′-ethoxy-4′-(7-oxo-6,7-dihydro-3H-[1,2,3]triazolo[4,5-d]pyrimidin-5-yl)-[1,1′-biphenyl]-3-carboxylate]
28 | ≤ 10 | ≤ 10 |  | CCOc1cc(-c2ccccc2C(=O)OC)ccc1-c1nc2[nH]nnc2c(=O)[nH]1 [Compound 106, Methyl 3′-ethoxy-4′-(7-oxo-6,7-dihydro-3H-[1,2,3]triazolo[4,5-d]pyrimidin-5-yl)-[1,1′-biphenyl]-2-carboxylate]
29 | ≤ 10 | ≤ 10 |  | CCOc1cc(-c2ccc(N)c(C(=O)O)c2)ccc1-c1nc2[nH]nnc2c(=O)[nH]1 [Compound 181, 4-amino-3′-ethoxy-4′-(7-oxo-6,7-dihydro-3H-[1,2,3]triazolo[4,5-d]pyrimidin-5-yl)-[1,1′-biphenyl]-3-carboxylic acid]
30 | ≤ 10 | ≤ 10 |  | CCOc1cc(-c2ccc(C(=O)O)s2)ccc1-c1nc2[nH]nnc2c(=O)[nH]1 [Compound 117, 5-(3-Ethoxy-4-(7-oxo-6,7-dihydro-3H-[1,2,3]triazolo[4,5-d]pyrimidin-5-yl)phenyl)thiophene-2-carboxylic acid]
31 | ≤ 10 | ≤ 10 |  | CCOc1cc(-c2cccc(C(=O)O)c2C)ccc1-c1nc2[nH]nnc2c(=O)[nH]1 [Compound 154, 3′-ethoxy-2-methyl-4′-(7-oxo-6,7-dihydro-3H-[1,2,3]triazolo[4,5-d]pyrimidin-5-yl)-[1,1′-biphenyl]-3-carboxylic acid]
